± gives the expanded uncertainty stated by the source.
Assay: cn = amount concentration of the nth substance listed, in mol/dm3
Conditions: 101 kPa, Liquid; for speed of sound: Pulse-echo method

`NC(N)=O` [urea] + O gave a speed of sound (283.1 K, c1 = 4.275) of 1578.8 ± 2.5 m/s, a mass density (283.1 K, c1 = 4.275) of 1069 ± 4 kg/m3 and a speed of sound (288.15 K, c1 = 2.065) of 1527.2 ± 2.4 m/s. The speed of sound (288.15 K, c1 = 3.148) was 1557.2 ± 2.5 m/s, the speed of sound (288.15 K, c1 = 4.269) was 1587.6 ± 2.5 m/s and the speed of sound (288.15 K, c1 = 5.421) was 1617 ± 2.5 m/s. For the same compound, the speed of sound (288.15 K, c1 = 7.839) was 1676.8 ± 2.6 m/s, the speed of sound (288.15 K, c1 = 9.106) was 1706.5 ± 2.7 m/s and the mass density (288.15 K, c1 = 2.065) was 1032 ± 3 kg/m3. The mass density (288.15 K, c1 = 3.148) was 1049 ± 4 kg/m3, the mass density (288.15 K, c1 = 4.269) was 1067 ± 4 kg/m3 and the mass density (288.15 K, c1 = 5.421) was 1084 ± 4 kg/m3. The mass density (288.15 K, c1 = 7.839) was 1120 ± 5 kg/m3, the mass density (288.15 K, c1 = 9.106) was 1138 ± 6 kg/m3 and the speed of sound (298.15 K, c1 = 2.059) was 1548.9 ± 2.5 m/s. It also gave a speed of sound (298.15 K, c1 = 3.139) of 1574.8 ± 2.5 m/s, a speed of sound (298.15 K, c1 = 4.253) of 1601.1 ± 2.5 m/s and a speed of sound (298.15 K, c1 = 5.405) of 1627.1 ± 2.6 m/s. The speed of sound (298.15 K, c1 = 7.802) was 1680.3 ± 2.6 m/s, the speed of sound (298.15 K, c1 = 9.069) was 1706.3 ± 2.7 m/s and the mass density (298.15 K, c1 = 2.059) was 1030 ± 3 kg/m3. For the same compound, the mass density (298.15 K, c1 = 3.139) was 1047 ± 4 kg/m3, the mass density (298.15 K, c1 = 4.253) was 1063 ± 4 kg/m3 and the mass density (298.15 K, c1 = 5.405) was 1081 ± 4 kg/m3. For the same compound, the mass density (298.15 K, c1 = 7.802) was 1115 ± 5 kg/m3, the mass density (298.15 K, c1 = 9.069) was 1134 ± 5 kg/m3 and the speed of sound (308.15 K, c1 = 2.051) was 1564.8 ± 2.5 m/s. The speed of sound (308.15 K, c1 = 3.124) was 1587.1 ± 2.5 m/s, the speed of sound (308.15 K, c1 = 4.232) was 1610.9 ± 2.5 m/s and the speed of sound (308.15 K, c1 = 5.378) was 1633.2 ± 2.6 m/s. For the same compound, the speed of sound (308.15 K, c1 = 7.765) was 1680.9 ± 2.6 m/s, the speed of sound (308.15 K, c1 = 9.021) was 1704.1 ± 2.7 m/s and the mass density (308.15 K, c1 = 2.051) was 1026 ± 3 kg/m3. It also gave a mass density (308.15 K, c1 = 3.124) of 1041 ± 4 kg/m3, a mass density (308.15 K, c1 = 4.232) of 1058 ± 4 kg/m3 and a mass density (308.15 K, c1 = 5.378) of 1076 ± 4 kg/m3. For the same compound, the mass density (308.15 K, c1 = 7.765) was 1109 ± 5 kg/m3 and the mass density (308.15 K, c1 = 9.021) was 1128 ± 5 kg/m3.

Source: the NIST ThermoML archive (doi:10.1021/je049971a)
